Laboratory results from ChEMBL document CHEMBL1134222, “The identification of a potent, water soluble inhibitor of lipoprotein-associated phospholipase A2” (Bioorg Med Chem Lett, 2001).

How the values were obtained:
[1] = Concentration required for inhibition of human serine dependent Phospholipase A2
Rattus norvegicus [2] = organism: Rattus norvegicus; assay: Compound was tested for its percent CNS penetration in rat; format: functional, Central nervous system
Homo sapiens = organism: Homo sapiens; assay: Compound was tested for inhibition of plasma enzyme in whole human plasma at concentration 100 nM; format: functional
[3] = system: Platelet-activating factor acetylhydrolase (Rattus norvegicus); assay: Compound was tested for inhibition of Lipoprotein associated phospholipase A2 in rat; conditions: concentration not given here
[4] = Rapid clearance after intravenous administration in rat was determined; format: ADME, organism-based; conditions: blood, read-out: CLb
Rattus norvegicus [5] = assay: Compound was tested for liver blood flow after intravenous administration in rat; format: functional

| IC50 [1] [nM] | SMILES | further results |
| --- | --- | --- |
| 0.9 | CCCCCCCCCCCCN(C)C(=O)Cn1cc(Cc2cnc(O)nc2)c(=O)nc1SCc1ccc(F)cc1 | – |
| 6 | CCCCCCCCN(C)C(=O)Cn1cc(Cc2cnc(=O)n(CC(=O)NC)c2)c(=O)nc1SCc1ccc(F)cc1 | Activity (Rattus norvegicus [2]): <7% |
| 5 | CCCCCCCCN(C)C(=O)Cn1cc(Cc2cnc(=O)n(CCO)c2)c(=O)nc1SCc1ccc(F)cc1 | – |
| 14 | CCCCCCCCN(C)C(=O)Cn1cc(Cc2cnc(=O)n(CC(=O)O)c2)c(=O)nc1SCc1ccc(F)cc1 | Activity (Rattus norvegicus [2]): 10% |
| 0.6 | CCCCCCCCCCCCN(C)C(=O)Cn1cc(Cc2cnc(=O)n(CC(=O)NCCO)c2)c(=O)nc1SCc1ccc(F)cc1 | inhibition at 0.1 µM (Homo sapiens): 79% |
| – | CCCCCCCCCCCCN(C)C(=O)Cn1cc(Cc2cncnc2)c(=O)nc1SCc1ccc(F)cc1 | Activity (Rattus norvegicus [2]): <2% |
| 75 | CCCCCCCCN(C)C(=O)Cn1cc(Cc2cnc(=O)n(CC(=O)OCC)c2)c(=O)nc1SCc1ccc(F)cc1 | – |
| 11 | CCCCCCCCN(C)C(=O)Cn1cc(Cc2cnc(=O)n(CC(=O)NCCC)c2)c(=O)nc1SCc1ccc(F)cc1 | – |
| 4 | CCCCCCCCN(C)C(=O)Cn1cc(Cc2cnc(O)nc2)c(=O)nc1SCc1ccc(F)cc1 | Activity (Rattus norvegicus [2]): 7% |
| 7 | CCCCCCCCN(C)C(=O)Cn1cc(Cc2cnc(OCc3ccccc3)nc2)c(=O)nc1SCc1ccc(F)cc1 | – |
| 4 | CCCCCCCCCCCCN(C)C(=O)Cn1cc(Cc2cnc(=O)n(CC(=O)OCC)c2)c(=O)nc1SCc1ccc(F)cc1 | – |
| 8 | CCCCCCCCN(C)C(=O)Cn1cc(Cc2cnc(=O)n(CC(=O)NCCO)c2)c(=O)nc1SCc1ccc(F)cc1 | – |
| 1 | CCCCCCCCCCCCN(C)C(=O)Cn1cc(Cc2cnc(=O)n(CCO)c2)c(=O)nc1SCc1ccc(F)cc1 | – |
| 4 | CCCCCCCCN(C)C(=O)Cn1cc(Cc2cnc(OC)nc2)c(=O)nc1SCc1ccc(F)cc1 | – |
| 10 | CCCCCCCCN(C)C(=O)Cn1cc(Cc2cnc(=O)n(CC(=O)N3CCOCC3)c2)c(=O)nc1SCc1ccc(F)cc1 | – |
| 7 | CCCCCCCCNC(=O)Cn1cc(Cc2cncnc2)c(=O)nc1SCc1ccc(F)cc1 | – |
| 5 | CCCCCCCCN(C)C(=O)Cn1cc(Cc2cnc(=O)n(CC(=O)N3CCN(C(C)=O)CC3)c2)c(=O)nc1SCc1ccc(F)cc1 | – |
| 0.4 | CCCCCCCCCCCCN(C)C(=O)Cn1cc(Cc2cnc(=O)n(CC(=O)NC)c2)c(=O)nc1SCc1ccc(F)cc1 | inhibition at 0.1 µM (Homo sapiens): 80% |
| 20 | CCCCCCCCN(C)C(=O)Cn1cc(Cc2cnc(=O)n(CC)c2)c(=O)nc1SCc1ccc(F)cc1 | – |
| 0.4 | CCCCCCCCCCCCN(C)C(=O)Cn1cc(Cc2cnc(=O)n(CC(=O)N3CCNC(=O)C3)c2)c(=O)nc1SCc1ccc(F)cc1 | – |
| 1 | CCCCCCCCCCCCN(C)C(=O)Cn1cc(Cc2cnc(OC)nc2)c(=O)nc1SCc1ccc(F)cc1 | – |
| 2 | CCCCCCCCN(C)C(=O)Cn1cc(Cc2cnc(=O)n(CC(=O)N3CCNC(=O)C3)c2)c(=O)nc1SCc1ccc(F)cc1 | – |
| 1 | CCCCCCCCCCCCN(C)C(=O)Cn1cc(Cc2cnc(=O)n(CC(=O)O)c2)c(=O)nc1SCc1ccc(F)cc1 | inhibition [3]: 83%; clearance [4]: 76 mL/min/kg; Activity (Rattus norvegicus [5]): 85%; Activity (Rattus norvegicus [2]): 37% |
| 3 | CCCCCCCCN(C)C(=O)Cn1cc(Cc2cnc(=O)n(CC(=O)N3CCN(C)CC3)c2)c(=O)nc1SCc1ccc(F)cc1 | – |
| 3 | CCCCCCCCN(C)C(=O)Cn1cc(Cc2cnc(OCC)nc2)c(=O)nc1SCc1ccc(F)cc1 | – |
| 27 | CCCCCCCCN(C)C(=O)Cn1cc(Cc2cnc(=O)n(C)c2)c(=O)nc1SCc1ccc(F)cc1 | – |
| 5 | CCCCCCCCCCCCN(C)C(=O)Cn1cc(Cc2cnc(=O)n(C)c2)c(=O)nc1SCc1ccc(F)cc1 | – |
| 0.7 | CCCCCCCCCCCCN(C)C(=O)Cn1cc(Cc2cnc(=O)n(CC(=O)N3CCOCC3)c2)c(=O)nc1SCc1ccc(F)cc1 | inhibition at 0.1 µM (Homo sapiens): 80%; Activity (Rattus norvegicus [2]): <7% |
| 15 | CCCCCCCCN(C)C(=O)Cn1cc(Cc2cncnc2)c(=O)nc1SCc1ccc(F)cc1 | – |
